Source: US12319664B2, “Herbicidally active 3-phenylisoxazoline-5-carboxamides of cyclopentenylcarboxylic acid derivatives” (Bayer Aktiengesellschaft, priority 2018, dated 2025)

What was measured:
STEME [1] = assay: Pre-emergence herbicidal action against STEME; format: in vivo, Stellaria media; settings: application rate 80 g/ha
Excerpt: (§1) 1. Pre-emergence herbicidal action against harmful plants and crop plant compatibility Seeds of monocotyledonous and dicotyledonous weed plants and crop plants are placed in plastic or wood-fibre pots and covered with soil. The compounds of the invention, formulated in the form of wettable powders (WP) or as emulsion concentrates (EC), are then applied onto the surface of the covering soil as aqueous suspension or emulsion with addition of 0.5% additive at a water application rate of 600 l/ha (converted). After the treatment, the pots are placed in a greenhouse and kept under good growth conditions for the trial plants. After about 3 weeks, the effect of the preparations is scored visually in comparison with untreated controls as percentages. For example, 100% activity=the plants have died, 0% activity=like control plants. [table]

VIOTR [2] = assay: Pre-emergence herbicidal action against VIOTR; format: in vivo, Viola tricolor; settings: application rate 80 g/ha
Excerpt: as §1

ALOMY [3] = assay: Pre-emergence herbicidal action against ALOMY; format: in vivo, Alopecurus myosuroides; settings: application rate 80 g/ha, scored visually after about 3 weeks vs untreated controls (100% = plants have died, 0% = like control plants)
Excerpt: as §1

AVEFA [4] = assay: Pre-emergence herbicidal action against AVEFA; format: in vivo, Avena fatua; settings: application rate 80 g/ha, scored visually after about 3 weeks vs untreated controls (100% = plants have died, 0% = like control plants)
Excerpt: as §1

LOLRI [5] = assay: Pre-emergence herbicidal action against LOLRI; format: in vivo, Lolium rigidum; settings: application rate 80 g/ha, scored visually after about 3 weeks vs untreated controls (100% = plants have died, 0% = like control plants)
Excerpt: as §1

SETVI [6] = assay: Pre-emergence herbicidal action against SETVI; format: in vivo, Setaria viridis; settings: application rate 80 g/ha, scored visually after about 3 weeks vs untreated controls (100% = plants have died, 0% = like control plants)
Excerpt: as §1

AMARE [7] = assay: Pre-emergence herbicidal action against AMARE; format: in vivo, Amaranthus retroflexus; settings: application rate 80 g/ha
Excerpt: as §1

POLCO [8] = assay: Pre-emergence herbicidal action against POLCO; format: in vivo, Polygonum convolvulus; settings: application rate 80 g/ha
Excerpt: as §1

HORMU [9] = assay: Pre-emergence herbicidal action against HORMU; format: in vivo, Hordeum murinum; settings: application rate 80 g/ha
Excerpt: as §1

ALOMY [10] = assay: Post-emergence herbicidal action against ALOMY; format: in vivo, Alopecurus myosuroides; settings: application rate 80 g/ha, rated visually after about 3 weeks
Outline: (§2)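 One-leaf-stage plants (2–3 weeks after sowing in sandy loam) received a foliar spray of WP- or EC-formulated compound in water with 0.5% additive at 600 l/ha. Plants stayed under optimum greenhouse conditions for about 3 weeks before visual scoring against controls.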

AVEFA [11] = assay: Post-emergence herbicidal action against AVEFA; format: in vivo, Avena fatua; settings: application rate 80 g/ha, rated visually after about 3 weeks
Outline: as §2

ECHCG = assay: Post-emergence herbicidal action against ECHCG; format: in vivo, Echinochloa crus-galli; settings: application rate 80 g/ha, rated visually after about 3 weeks
Outline: as §2

LOLRI [12] = assay: Post-emergence herbicidal action against LOLRI; format: in vivo, Lolium rigidum; settings: application rate 80 g/ha, rated visually after about 3 weeks
Outline: as §2

SETVI [13] = assay: Post-emergence herbicidal action against SETVI; format: in vivo, Setaria viridis; settings: application rate 80 g/ha, rated visually after about 3 weeks
Outline: as §2

ABUTH = assay: Post-emergence herbicidal action against ABUTH; format: in vivo, Abutilon theophrasti; settings: application rate 80 g/ha, rated visually about 3 weeks after treatment
Outline: as §2

AMARE [14] = assay: Post-emergence herbicidal action against AMARE; format: in vivo, Amaranthus retroflexus; settings: application rate 80 g/ha, rated visually about 3 weeks after treatment
Outline: as §2

MATIN = assay: Post-emergence herbicidal action against MATIN; format: in vivo, Matricaria inodora; settings: application rate 80 g/ha, rated visually about 3 weeks after treatment
Outline: as §2

PHBPU = assay: Post-emergence herbicidal action against PHBPU; format: in vivo, Pharbitis purpurea; settings: application rate 80 g/ha, rated visually about 3 weeks after treatment
Outline: as §2

POLCO [15] = assay: Post-emergence herbicidal action against POLCO; format: in vivo, Polygonum convolvulus; settings: application rate 80 g/ha, rated visually about 3 weeks after treatment
Outline: as §2

STEME [16] = assay: Post-emergence herbicidal action against STEME; format: in vivo, Stellaria media; settings: application rate 80 g/ha, rated visually about 3 weeks after treatment
Outline: as §2

VIOTR [17] = assay: Post-emergence herbicidal action against VIOTR; format: in vivo, Viola tricolor; settings: application rate 80 g/ha, rated visually about 3 weeks after treatment
Outline: as §2

VERPE = assay: Post-emergence herbicidal action against VERPE; format: in vivo, Veronica persica; settings: application rate 80 g/ha
Outline: as §2

HORMU [18] = assay: Post-emergence herbicidal action against HORMU; format: in vivo, Hordeum murinum; settings: application rate 80 g/ha
Outline: as §2

Compound	Herbicidal action against [%] ALOMY (ALOMY [10]) [%]	Herbicidal action against [%] AVEFA (AVEFA [11]) [%]	Herbicidal action against [%] ECHCG (ECHCG) [%]	Herbicidal action against [%] LOLRI (LOLRI [12]) [%]	Herbicidal action against [%] SETVI (SETVI [13]) [%]	Herbicidal action against [%] ABUTH (ABUTH) [%]	Herbicidal action against [%] AMARE (AMARE [14]) [%]	Herbicidal action against [%] MATIN (MATIN) [%]	Herbicidal action against [%] PHBPU (PHBPU) [%]	Herbicidal action against [%] POLCO (POLCO [15]) [%]	Herbicidal action against [%] STEME (STEME [16]) [%]	Herbicidal action against [%] VIOTR (VIOTR [17]) [%]	Herbicidal action against [%] VERPE (VERPE) [%]	Herbicidal action against [%] HORMU (HORMU [18]) [%]	other results
CC(C)ONC(=O)[C@H]1C=C[C@@H](NC(=O)C2(C)CC(c3cccc(F)c3)=NO2)C1 (stereo partly drawn) [II-05]															Herbicidal action against [%] STEME (STEME [1]): 90%
CCONC(=O)[C@H]1C=C[C@@H](NC(=O)C2(C)CC(c3cccc(F)c3)=NO2)C1 (stereo partly drawn) [II-03]															Herbicidal action against [%] VIOTR (VIOTR [2]): 90%
CN(C)NC(=O)C1=CCC(NC(=O)C2(C)CC(c3cccc(F)c3)=NO2)C1 (mixture of isomers) [IV-05]															Herbicidal action against [%] ALOMY (ALOMY [3]): 80%; Herbicidal action against [%] AVEFA (AVEFA [4]): 80%; Herbicidal action against [%] STEME (STEME [1]): 90%; Herbicidal action against [%] VIOTR (VIOTR [2]): 100%
CN(C)C(=O)C1=CCC(NC(=O)C2(C)CC(c3cccc(F)c3)=NO2)C1 (mixture of isomers) [IV-01]															Herbicidal action against [%] ALOMY (ALOMY [3]): 90%; Herbicidal action against [%] AVEFA (AVEFA [4]): 90%; Herbicidal action against [%] LOLRI (LOLRI [5]): 100%; Herbicidal action against [%] SETVI (SETVI [6]): 90%; Herbicidal action against [%] AMARE (AMARE [7]): 90%; Herbicidal action against [%] POLCO (POLCO [8]): 90%; Herbicidal action against [%] STEME (STEME [1]): 90%; Herbicidal action against [%] HORMU (HORMU [9]): 90%
CC1(C(=O)NC2C=CC(C(=O)NS(C)(=O)=O)C2)CC(c2cccc(F)c2)=NO1 (mixture of isomers) [II-13]															Herbicidal action against [%] STEME (STEME [1]): 100%
COC(=O)[C@H]1C=C[C@H](NC(=O)[C@@]2(C(F)(F)F)CC(c3cc(F)cc(F)c3)=NO2)C1 [Example I-062]	100	100	90	90	80	80	80	80	80	80	80	80	90	100	
CCOC(=O)[C@H]1C=C[C@@H](NC(=O)C2(C)CC(c3cccc(F)c3)=NO2)C1 (stereo partly drawn) [Example I-005]															Herbicidal action against [%] AMARE (AMARE [7]): 80%
C=CC1(C(=O)NC2C=CC(C(=O)O)C2)CC(c2cc(F)cc(F)c2)=NO1 (mixture of isomers) [Example I-037]	90	90	90	90	90	90	90	80	80	90	90	90	90	90	
CCOC(=O)C1=CC[C@@H](NC(=O)C2(C)CC(c3cccc(F)c3)=NO2)C1 (stereo partly drawn) [III-05]				80										90	Herbicidal action against [%] HORMU (HORMU [9]): 80%
COC(=O)[C@@H]1C=C[C@H](NC(=O)C2(C(F)(F)F)CC(c3cc(F)cc(C#N)c3)=NO2)C1 (single isomer, unassigned) [Example I-098]	100	100	90	90	80	80	80	80	80	80	90	80	80	90	
CC(C)OC(=O)C1C=CC(NC(=O)C2(C(F)(F)F)CC(c3cc(F)cc(F)c3)=NO2)C1 (mixture of isomers) [Example I-064]	90	100	90	100	90	80	90	90	80	90	80	80	80	90	
COC(=O)C(NC(=O)C1C=CC(NC(=O)C2(C)CC(c3cc(F)cc(F)c3)=NO2)C1)C(C)C (mixture of isomers) [II-11]	90	90	90	90	90	90	90	90	90	90	90	90	90	90	
C=CC1(C(=O)NC2C=CC(C(=O)OCCCl)C2)CC(c2cc(F)cc(F)c2)=NO1 (mixture of isomers) [Example I-061]	90	100	100	90	90	80	90	80	80	90	90	80	90	90	
CONC(=O)C1=CC[C@@H](NC(=O)C2(C)CC(c3cccc(F)c3)=NO2)C1 (mixture of isomers) [IV-03, (5SR)-3-(3-Fluorophenyl)-N-[(1R)-3-[(methoxyamino)carbonyl]cyclopent-3-en-1-yl]-5-methyl-4H-1,2-oxazole-5-carboxamide]				90											Herbicidal action against [%] ALOMY (ALOMY [3]): 90%
